According to patent US9458212B2, “Nanoparticles containing a peptide, vectors containing said nanoparticles, and pharmaceutical uses of said nanoparticles and vectors” (CENTRE NATIONAL DE LA RECHERCHE SCIENTIFIQUE (C.N.R.S.), priority 2008, dated 2016):
Non-standard residues stand in square brackets, D forms with d. No end group written: not given here. pS = N[C@@H](COP(=O)(O)O)C(=O)O

Assays:
mice = experiment: Intranasal administration of peptide P140 in mice; assay type: in vivo
Experimental: At present, the peptide P140 is administered by subcutaneous injection, which is not a comfortable mode of administration for the patient. Several other modes of administration have thus been tested. For instance, intranasal administration has been tested in mice but is not effective.

[1] = test system: T cells present in the lymph nodes draining the site of administration; conditions: with adjuvant, BALB/c mice, Monneaux et al. 2003; cited from earlier work
[2] = test system: T cells present in the lymph nodes draining the site of administration; experiment: Subcutaneous immunization of BALB/c mice; ex vivo proliferation and cytokine secretion of lymph node cells stimulated with peptide P140; conditions: s.c., in the presence of CFA
Experimental: Eur. J. Immunol. 33, 287-296].
Female BALB/c mice aged 7 weeks old (4 groups of two mice) are immunized subcutaneously in the flanks with different formulations. […] The mice having received peptide in its free form or in the form of nanoparticles all received the same quantity of peptide, namely 100 μg per mouse.
One week after the immunization, the mice are sacrificed and samples are taken from the lymph nodes of the flank and of the foreleg. The cells issuing from these lymph nodes are cultured ex vivo in a proportion of 5.10^5 cells per well in the presence of different peptide concentrations (0, 6, 20 and 60 μM) so as to study their proliferation and also the secretion of cytokines.
The Th cells are classified into sub-populations, Th1 or Th2, depending on the cytokines that they produce and the function that they perform. Cells of type Th-1 produce in particular interleukin-2 (IL-2) and interferon-γ (IFN-γ), whereas cells of type Th-2 secrete essentially IL-4, IL-5, IL-6, IL-10 and IL-13. The immunization conditions used here, that is to say the use of CFA, encourage the development of a response of type Th1. Therefore, only the secretion of IL-2 and IFN-γ was studied.

peptide P140: 21 amino acid peptide RIHMVYSKRSGKPRGYAFIEY, serine in position 10 phosphorylated (SEQ ID NO: 1) (RIHMVYSKR[pS]GKPRGYAFIEY; listed as Homo sapiens)
efficacy of intranasal administration (mice): not effective | T cell response after s.c. administration in the presence of adjuvant [1]: activation of the auxiliary T cells Th | stimulation indices (proliferation) ([2]; 100 μg peptide per mouse, cells cultured with 0, 6, 20, 60 μM peptide): positive and dose-dependent | cytokine secretion (IL-2, IFN-γ) [2]: dose-dependent responses
